Key:
HT22 cells [1] = test: Cell membrane permeability assay (intracellular HYP by LC-MS/MS); type: in vitro ADME; conditions: HYP 20–80 μM, 24 h
Protocol: HT22 cells were co-treated with Aβ aggregates and HYP (20–80 μM) for 24 h and washed with PBS for 3 times. The cell membrane was disrupted with 200 μL methanol for the collection and centrifugation of cellular content at 20,000 rpm for 10 min. The supernatant was then collected for LC-MS/MS analysis. HYP content was quantified using UHPLC-MS/MS system, which includes Agilent 1290 Infinity UHPLC, and Agilent 6460 Triple Quadrupole, equipped with an electrospray ionization interface used to generate positive ions for the determination of HYP. The compounds were analyzed by using the Agilent Zorbax Eclipse Plus C-18 column with a particle size of […] (flow rate: 0.35 mL/min). The mobile phase was set as follows: mobile phase A (0.1% formic acid in water) and mobile phase B (0.1% formic acid in ACN): 0–3 min, 10–30% B; 3–4 min, 70% B; 4–5 min, 30–70% B; 5–6 min, 70-10% B. The column and auto-sampler temperature were maintained at 30 °C and 4 °C, respectively. Data were analyzed by using Agilent MassHunter Workstation software B.01.03. The gas temperature was set at 300 °C with a flow rate of 11 L/min. Gases were set at 30 psi for the nebulizer, capillary, at 4000 V. For the HYP, the fragment was 170. The collision energy was set at 30; The mass transitions were as follows based on multiple reaction monitoring: m/z 464.38 → 299.9. For the Isorhamnetin (ISO), the fragment was 150. […]

HT22 cells [2] = test: Mitochondrial membrane potential by JC-1; type: cell-based
From the text: The mitochondrial membrane potential of HT22 stained with 5,5′,6,6′-tetrachloro-1,1′,3,3′-tetraethylbenzimidazolyl cobalt iodide (JC-1) was observed by laser scanning confocal microscopy.

Aβ aggregate = target: T1, Aβ aggregate (Homo sapiens, UniProt P05067); test: LC/MS/MS Aβ binding propensity (reduction of HYP peak area in MRM); conditions: HYP 20–80 μM with 30 μM Aβ aggregate vs HYP alone
T1 construct: purchased DGpeptites, Hangzhou, CHINA
From the text: Quercetin-3-O-β-D-galactopyranoside (Hyperoside, HYP), belongs to the class of flavonol glycosides and is derived from Crataegus pinnatifida Bunge Aβ is a well-known biomarker correlated to AD, therefore, the effect of HYP in targeting Aβ was investigated by molecular docking. […] HYP with Aβ molecular surface interaction and hydrogen bonding information were shown in supplementary 1A and 1B. […] The formation of Aβ aggregate and its particle size was verified by DLS (Fig. 1C). While the average particle size of the Aβ monomer is 365.62 nm, the particle size of Aβ aggregate is 1877 nm (Fig. 1D). The detection on the formation of Aβ aggregate was then performed by using the ThT fluorescence assay. ThT is a benzothiazole-like small molecule that specifically binds to amyloid fibrils. […] The direct binding affinity of HYP to Aβ aggregate was confirmed by the BLI assay. […] By using HYP alone (without Aβ aggregate incubation) as the control, all incubation mixtures were analyzed by using LC/MS/MS under the same chromatographic conditions according to our previous reported detection method. The quantitative reduction (%) in the peak area, representing the Aβ binding propensity of the tested compound [39] is used for statistical analysis.

Aβ (1–42) = target: T2, Aβ (1–42) (Homo sapiens, UniProt P05067); test: Thioflavin T (ThT) fluorescence assay of Aβ fibrillation; type: biochemical; conditions: Aβ 30 μM, 37 °C, day 1–7
T2 construct: purchased DGpeptites, Hangzhou, CHINA
Protocol: HYP was incubated with Aβ (30 μM) for 7 days at 37 °C at a final volume of 100 μL. ThT fluorescence measurement was measured for every 24 h. ThT (20 μM) dissolved in PBS (pH = 7.4) was added in a black 96-well plate with 10 μL of aggregated Aβ (with or without HYP) and incubated for 1 h. Fluorescence measurement was then performed using a microplate reader (SpectraMax Paradigm, Molecular Devices, CA, USA) with an excitation wavelength of 450 nm and an emission wavelength of 490 nm. Background fluorescence was measured in control samples containing PBS and 0.02 % DMSO.

APP/PS1 mice = test: Fear-conditioning test; type: in vivo; conditions: HYP nasal, every 3 days, 8 weeks
Protocol: All animal care and experimental procedures were performed in accordance with the “Institutional Animal Care and User Committee Guidelines” of the Macau University of Science and Technology. APP/PSEN1 (APP/PS1) mice (N000175) were purchased from the Nanjing Institute of Biomedical Sciences, Nanjing University, China, weighing 25 ± 5 g. The animals were housed in a temperature-controlled room with a 12 h light/dark cycle and given ad libitum food and water. Male mice were randomly divided into the following 6 experimental groups. (a) wild-type group (n = 6), (b) APP/PS1 group (n = 6), (c) HYP (20 mg/kg group) (n = 7), (d) HYP (40 mg/kg) group (n = 8), (e) HYP (80 mg/kg) group (n = 8) and (f) memantine (MEM) (10 mg/kg) positive control group (n = 8). HYP was dissolved in the solvent containing 10% DMSO, 40% PEG300 and 5% Tween-80 in PBS, and administrated via nasal injection for every 3 days with a volume of 0.5 μL/g of body weight for 8 consecutive weeks. The fear conditioning test measures the ability of mice to learn and remember associations between aversive experiences and the environment. On the first day of the fear conditioning test (Yuyan, Shanghai, China), mice were placed in a chamber for 5 min to acclimatize and explore. […] Responses were recorded with a video camera and scored for resting time, which was defined as the absence of any movement other than breathing.

T2 sequence (P05067 672-713 limits assumed): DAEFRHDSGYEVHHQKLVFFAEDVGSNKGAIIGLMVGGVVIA
T1 sequence (P05067 672-713 limits assumed): as above

## O=c1c(O[C@@H]2O[C@H](CO)[C@H](O)[C@H](O)[C@H]2O)c(-c2ccc(O)c(O)c2)oc2cc(O)cc(O)c12 [HYP, Quercetin-3-O-β-D-galactopyranoside]
HT22 cells [1]
  intracellular level of HYP: increased upon the escalating concentration of HYP
HT22 cells [2]; Aβ aggregates + HYP 20–80 μM, 24 h
  mitochondrial membrane potential (ratio of aggregated and monomeric JC-1): rescue the loss of mitochondrial membrane potential induced by Aβ aggregates in a dose-dependent manner
HT22 cells [2]; HYP alone
  mitochondrial membrane potential (JC-1): no effect
Aβ aggregate
  decrease in the peak area of HYP in MRM (Aβ binding propensity): dose-dependent binding affinity
Aβ (1–42)
  Aβ fibrillation and aggregation (ThT fluorescence): reduced Aβ fibrillation and aggregation
APP/PS1 mice
  freezing time in fear conditioning test: significantly decreased the freezing time

From publication PMC9975698, “Hyperoside alleviates toxicity of β-amyloid via endoplasmic reticulum-mitochondrial calcium signal transduction cascade in APP/PS1 double transgenic Alzheimer's disease mice” (Redox Biology, 2023)
